ChEMBL document CHEMBL1201862, “PubChem BioAssay data set” (2004)
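Grown in 96-well plates, cells were treated for 48 hours with each compound at five concentrations. Insufficient inhibition: endpoint recorded as highest concentration tested. At the GI50, growth is halved.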 Activity calls are given as the source filed them. No stated cut-off is given here; in the data, active = GI50 up to about 1.1 µM and inactive = higher.

Tests used:
Experiment in all cases: growth of human tumour cells (NCI), 48 h
[1] = system: COLO 205
[2] = system: HT-29
[3] = system: SNB-19
[4] = system: HOP-62
[5] = system: TK-10
[6] = system: A549
[7] = system: NCI-H226
[8] = system: OVCAR-3
[9] = system: Hs-578T
[10] = system: SK-MEL-2
[11] = system: UACC-62
[12] = system: MDA-N
[13] = system: HCT-116
[14] = system: RXF 393
[15] = system: SK-OV-3
[16] = system: SF-539
[17] = system: T47D
[18] = system: HCT-15
[19] = system: SW-620
[20] = system: U-251
[21] = system: Malme-3M
[22] = system: K562
[23] = system: IGROV-1
[24] = system: OVCAR-5
[25] = system: DU-145
[26] = system: CCRF-CEM
[27] = system: PC-3
[28] = system: RPMI-8226
[29] = system: SF-268
[30] = system: NCI-H522
[31] = system: HOP-92
[32] = system: OVCAR-4
[33] = system: BT-549
[34] = system: SK-MEL-28
[35] = system: LOX IMVI
[36] = system: SF-295
[37] = system: UACC-257
[38] = system: MDA-MB-435
[39] = system: CAKI-1
[40] = system: M14
[41] = system: SNB-75
[42] = system: SN12C
[43] = system: UO-31
[44] = system: NCI-H23
[45] = system: EKVX
[46] = system: A498
[47] = system: MCF7
[48] = system: MDA-MB-231
[49] = system: HCC 2998
[50] = system: MOLT-4
[51] = system: HL-60
[52] = system: NCI/ADR-RES
[53] = system: KM12
[54] = system: SK-MEL-5
[55] = system: OVCAR-8
[56] = system: ACHN
[57] = system: NCI-H460
[58] = system: 786-0
[59] = system: SR

## C=C1[C@H](OCC(C)C)[C@@H](O)[C@@H](OC(=O)c2cccnc2)C(C)(C)/C=C/[C@H](C)[C@H](OC(C)=O)[C@@]2(O)C[C@@](C)(OC(C)=O)[C@H](OC(=O)c3ccccc3)[C@@H]2[C@H]1OC(C)=O
[1]
  GI50: 0.0713 µM (active)
[2]
  GI50: 0.0662 µM (active)
[3]
  GI50: 3.1 µM (inactive)
[4]
  GI50: 0.0681 µM (active)
[5]
  GI50: 1.07 µM (active)
[6]
  GI50: 0.0459 µM (active)
[7]
  GI50: 1.39 µM (inactive)
[8]
  GI50: 1.12 µM (active)
[9]
  GI50: 0.0895 µM (active)
[10]
  GI50: > 2.13 µM (inactive)
[11]
  GI50: 2.07 µM (inactive)
[12]
  GI50: 0.451 µM (active)
[13]
  GI50: 1.59 µM (inactive)
[14]
  GI50: 4.24 µM (inactive)
[15]
  GI50: > 3.02 µM (inactive)
[16]
  GI50: 0.482 µM (active)
[17]
  GI50: > 2.96 µM (inactive)
[18]
  GI50: 1.16 µM
[19]
  GI50: 0.502 µM (active)
[20]
  GI50: 1.34 µM (inactive)
[21]
  GI50: 0.187 µM (active)
[22]
  GI50: 0.0585 µM (active)
[23]
  GI50: 1.36 µM (inactive)
[24]
  GI50: > 2.43 µM (inactive)
[25]
  GI50: 1.91 µM (inactive)
[26]
  GI50: 0.133 µM (active)
[27]
  GI50: 1.66 µM (inactive)
[28]
  GI50: 0.741 µM (active)
[29]
  GI50: > 1.49 µM (inactive)
[30]
  GI50: 0.944 µM (active)
[31]
  GI50: 0.723 µM (active)
[32]
  GI50: 1.9 µM (inactive)
[33]
  GI50: 1.66 µM (inactive)
[34]
  GI50: 1.14 µM (inactive)
[35]
  GI50: 1.17 µM (inactive)
[36]
  GI50: 0.371 µM (active)
[37]
  GI50: 2.9 µM (inactive)
[38]
  GI50: 0.167 µM (active)
[39]
  GI50: 0.488 µM (active)
[40]
  GI50: 0.977 µM (active)
[41]
  GI50: 0.134 µM (active)
[42]
  GI50: > 3.1 µM (inactive)
[43]
  GI50: 0.54 µM (active)
[44]
  GI50: 1.95 µM (inactive)
[45]
  GI50: 1.04 µM (active)
[46]
  GI50: 0.482 µM (active)
[47]
  GI50: 1.8 µM (inactive)
[48]
  GI50: > 2.54 µM (inactive)
[49]
  GI50: 0.19 µM (active)
[50]
  GI50: 0.138 µM (active)
[51]
  GI50: 0.0695 µM (active)
[52]
  GI50: 1.29 µM (inactive)
[53]
  GI50: 1.34 µM (inactive)
[54]
  GI50: 0.332 µM (active)
[55]
  GI50: 1.22 µM (inactive)
[56]
  GI50: 0.161 µM (active)
[57]
  GI50: 0.0126 µM (active)
[58]
  GI50: 1.67 µM (inactive)
[59]
  GI50: 1.16 µM (inactive)

## Cc1ccc([N+](=O)[O-])cc1S(=O)(=O)Nc1ccc(C2=NOC(c3cccs3)C2)cc1 (configuration not stated)
[1]
  GI50: 7.8 µM (inactive)
[2]
  GI50: 12.5 µM (inactive)
[3]
  GI50: 13.8 µM (inactive)
[4]
  GI50: 5.79 µM (inactive)
[5]
  GI50: 16.4 µM (inactive)
[6]
  GI50: 12.1 µM (inactive)
[7]
  GI50: 25.1 µM (inactive)
[8]
  GI50: 5.19 µM (inactive)
[9]
  GI50: 20 µM (inactive)
[10]
  GI50: 4.81 µM (inactive)
[11]
  GI50: 3.78 µM (inactive)
[12]
  GI50: 2.74 µM (inactive)
[13]
  GI50: 11.1 µM (inactive)
[14]
  GI50: 5.02 µM (inactive)
[15]
  GI50: 14.2 µM (inactive)
[16]
  GI50: 13.5 µM (inactive)
[17]
  GI50: 12.8 µM (inactive)
[18]
  GI50: 4.75 µM
[19]
  GI50: 7.5 µM (inactive)
[21]
  GI50: 13.9 µM (inactive)
[22]
  GI50: 3.58 µM (inactive)
[23]
  GI50: 11.1 µM (inactive)
[24]
  GI50: 32.3 µM (inactive)
[25]
  GI50: 17.6 µM (inactive)
[26]
  GI50: 8.93 µM (inactive)
[27]
  GI50: 8.93 µM (inactive)
[28]
  GI50: 10.4 µM (inactive)
[29]
  GI50: 18.4 µM (inactive)
[30]
  GI50: 3.2 µM (inactive)
[31]
  GI50: 19.9 µM (inactive)
[32]
  GI50: 9.42 µM (inactive)
[33]
  GI50: 13.2 µM (inactive)
[34]
  GI50: 20.1 µM (inactive)
[35]
  GI50: 11 µM (inactive)
[36]
  GI50: 3.9 µM (inactive)
[37]
  GI50: 16.9 µM (inactive)
[38]
  GI50: 2.53 µM (inactive)
[39]
  GI50: 18.7 µM (inactive)
[40]
  GI50: 5.98 µM (inactive)
[41]
  GI50: 16.1 µM (inactive)
[42]
  GI50: 17.9 µM (inactive)
[43]
  GI50: 6.25 µM (inactive)
[44]
  GI50: 17.6 µM (inactive)
[45]
  GI50: 19.9 µM (inactive)
[46]
  GI50: 4.56 µM (inactive)
[47]
  GI50: 5.73 µM (inactive)
[48]
  GI50: 18.7 µM (inactive)
[49]
  GI50: 9.25 µM (inactive)
[50]
  GI50: 4.04 µM (inactive)
[51]
  GI50: 3.55 µM (inactive)
[52]
  GI50: 4.13 µM (inactive)
[53]
  GI50: 7.18 µM (inactive)
[54]
  GI50: 7.66 µM (inactive)
[55]
  GI50: 22.9 µM (inactive)
[56]
  GI50: 14.8 µM (inactive)
[57]
  GI50: 9.66 µM (inactive)
[58]
  GI50: 17.5 µM (inactive)
[59]
  GI50: 2.05 µM (inactive)
